The record followed here is article PMC12040169 (PLOS Biology, 2025).

The data set can be described thus: in vitro. Conditions: human, hela cells, % viability.

The term viability denotes a read-out of living cells in per cent, often relative to untreated cells. Take `Cc1csc(C(=O)N2CCCC(c3cc(O)cc(C)n3)C2)c1` (stereo not drawn) [CBK283423]: the viability at 28.5 h, 10 µM is 89.5%. For `CN(C)c1ccc(-c2nccnc2NS(=O)(=O)Cc2cccc(Cl)c2)cc1` [CBK050787] the value was 102%. On to `CCc1nn(CC(=O)OC(C)C)c(=O)c2cc3sccc3n12` [CBK284076], for which the viability at 28.5 h, 10 µM came to 75.3%. Consider `CC(C)NC(=O)c1cccc2c1CCCN2Cc1nc2ccccc2o1` [CBK295135], for which the viability at 28.5 h, 10 µM was 101%. Next, `COc1ccc(Br)c(C(=O)N(C)Cc2cnn(C)c2)c1` [CBK305142]: 97.7%; `Cc1nccn1CCCn1cncc1-c1ccc2c(c1)CC(C)N2C` (stereo not drawn) [CBK281818]: 87.8%; `Cn1ncc2c1CCCN(C(=O)CCCOc1ccccc1F)C2` [CBK285278]: 85%. For `CC(=O)N1CCC[C@H]2NC(=O)CNC(=O)C3(C/C=C/C[C@H]21)CCN(Cc1ccccc1O)CC3` [CBK292054], the viability at 28.5 h, 10 µM was found to be 99.3%. Next, `O=C(O)c1ccc(S(=O)(=O)c2ccc(O)cc2)cc1` [CBK261411]: 95.2%. Next, `Cc1[nH]c(=O)[nH]c(=S)c1C(=O)Nc1ccc(Cl)cc1C#N` [CBK115502]: 91%. For `COc1ccc2ncc(C#N)c(Nc3ccc(OC)c(OC)c3)c2c1` [CBK287808], the viability at 28.5 h, 10 µM came out at 92.3%. For `OC(CN1CCN(C(c2ccccc2)c2ccccc2)CC1)Cn1c2ccccc2c2ccccc21` (stereo not drawn) [CBK262730], the viability at 28.5 h, 10 µM was 99.6%. Regarding `COc1ccc(C(=O)C=c2[nH]c(=O)c(=Cc3ccc(C(=O)O)cc3)s2)cc1` [CBK295614], the viability at 28.5 h, 10 µM was 99.6%.

For the compound `Cc1ccc(NC(=O)C2CC(=O)Nc3nc(SCc4ccccc4C)[nH]c(=O)c32)c(C)c1` (stereo not drawn) [CBK294438], the viability at 28.5 h, 10 µM worked out at 91%. Turning to `O=C(O)CCNc1ccc(Cl)cc1` [CBK057631], the viability at 28.5 h, 10 µM came out at 75.5%. As to `CC(Oc1ccc(Br)cc1)C(=O)O/N=C(\N)c1ccncc1` (stereo not drawn) [CBK266797], the viability at 28.5 h, 10 µM is 93%. For `c1ccc(CN2CCC(NCc3ccco3)C(c3ccccc3)C2)cc1` (stereo not drawn) [CBK286167] the value was 95.4%. As for `O=C(CCCCCN1C(=O)CCC1=O)Nc1nc[nH]n1` [CBK267682], the viability at 28.5 h, 10 µM worked out at 103%. With `CSCCCNC(=O)c1ccc2c(c1)nc(N1CC[C@H](O)C1)n2C` [CBK306807], the viability at 28.5 h, 10 µM was 107%. Next, `CCOC(=O)CN1CCC(Oc2nccnc2OCC2COc3ccccc3O2)CC1` (stereo not drawn) [CBK082989T]: 96.6%; `Oc1ccc(/C=N/n2c(S)nnc2C(F)(F)F)cc1` [CBK265206]: 98.6%; `O=C(CCN1C(=O)c2ccccc2C1=O)NC(=S)Nc1ccccc1` [CBK267595]: 108%. Next, `Cc1nc(-c2ccc(NC(=O)Cc3sc(C)nc3C)cc2)cs1` [CBK281404]: 96%; `Oc1cccc2ccc(-n3ccnc3)nc12` [CBK017812]: 79.3%.

With `COC(=O)c1c(NC(=O)CCCC(=O)O)sc(C)c1C` [CBK265382], the viability at 28.5 h, 10 µM was 98.2%.

Regarding `C[C@@H](c1ccccc1)n1c(=O)[nH]c2ncc(-c3cccc(-c4ccccc4)c3)nc21` [CBK064192], the viability at 28.5 h, 10 µM is 88.8%. For `Cc1ccc(C)c(OCCN(C)c2cc(C3CC(N)C3)nc(N)n2)c1` (stereo not drawn) [CBK307695] the value was 45.4%; for `O=C(Nc1nc(-c2ccncc2)cs1)c1sc2ccccc2c1Cl` [CBK287562], 92.1%. Next, `CS(=O)(=O)N1CCC(C(=O)NC(c2ccc(F)cc2)c2ccccn2)CC1` (stereo not drawn) [CBK059696]: 94.9%; `CC(=O)c1ccccc1NC(=O)c1cc2ccc(F)cc2nc1C` [CBK297929]: 89.2%; `Cc1nn(C)c(Cl)c1S(=O)(=O)Nc1nnc(C(F)(F)F)s1` [CBK062003]: 92%. For `Cc1nc2c(OCCOc3ccc(F)cc3)cccn2c1N(C)C(=O)CCC1CCCC1` [CBK147198] the value was 103%.

Consider `Cc1cc(NC(=O)Cc2ccc(Cl)c(Cl)c2)c2ccccc2n1` [CBK116266], for which the viability at 28.5 h, 10 µM came to 99.3%. For `CC1C2CCCN2CCN1Cc1cccc(Oc2ccccc2)c1` (stereo not drawn) [CBK262880] the value was 94.9%. For `Cc1c(C(=O)O)cccc1N1C(=O)c2ccc([N+](=O)[O-])cc2C1=O` [CBK262724] the value was 99.9%; for `COc1cc(F)cc(OC2CCNCC2)c1NC(=O)C1=CC(=O)CC(C)(C)O1` [CBK050352T], 96.9%; for `Clc1ccc(CNCc2cccnc2)cc1` [CBK086257C], 108%. Next, `Cc1cc(NC(=O)OCc2cccnc2C)c2ccccc2n1` [CBK200129]: 95.9%; `S=C(Nc1ccccc1)c1ccccc1` [CBK005397]: 100%. `CCC(C)c1ccc(OCC(=O)Nc2ccc3[nH]c(=O)[nH]c3c2)cc1` (stereo not drawn) [CBK266911]: the viability at 28.5 h, 10 µM came to 105%. For `CN(C)CCCNC(=O)c1ccc(/C=N/O)[n+](C)c1` [CBK278284I] the value was 88.8%.

Turning to `O=C(c1cncnc1)N1CCCC2(CCN(C(=O)c3cc(F)c(F)cc3F)C2)C1` (stereo not drawn) [CBK131564], the viability at 28.5 h, 10 µM is 106%. Next, `Cc1nnc(Sc2nc3ccccc3nc2N2CCCC2)s1` [CBK093751]: 89.1%.

As for `OC(COCc1ccc2c(c1)OCO2)CN1CCN(C(c2ccccc2)c2ccccc2)CC1` (stereo not drawn) [CBK074850C], the viability at 28.5 h, 10 µM came out at 83.2%.

Take `c1ccc(CCNc2cncc(-c3cccs3)n2)nc1` [CBK065510]: the viability at 28.5 h, 10 µM worked out at 98.2%. As to `O=[N+]([O-])c1ccccc1/C=C\C=N\n1c(S)nnc1-c1ccc(Cl)cc1Cl` [CBK264405], the viability at 28.5 h, 10 µM came out at 95%. For `CCCC(=O)Nc1ccc(OCCOC(C)(C)C)c(C(C)=O)c1` [CBK305691], the viability at 28.5 h, 10 µM was 79.8%. For `CCn1ncc(S(=O)(=O)Nc2ccc3c(ccn3C)c2)c1C` [CBK282730] the value was 102%; for `Fc1ccc(CCN2CCC(c3nc(-c4cccnc4)no3)CC2)cc1` [CBK051464], 118%; for `O=C(CSc1nc(-c2ccco2)cc(C(F)(F)F)n1)Nc1ccc(C(=O)N2CCCCC2)cc1` [CBK266238], 101%. For `CC(=O)N1CCc2ccc(NC(=O)c3cc(-c4ccc(C(=O)N5CCOCC5)cc4)cnc3N)cc21` [CBK160205], the viability at 28.5 h, 10 µM was determined as 89.9%. Next, `O=C(c1ccncc1)N1CCCCC1c1nc2ccccc2[nH]1` (stereo not drawn) [CBK281641]: 87.2%; `O=C(N/N=C/c1ccc(O)c(I)c1)c1ccncc1` [CBK262144]: 86.2%; `O=C(Nc1ccccc1Br)C1CCCC1` [CBK092059]: 111%.

With `Cc1noc(C)c1CC(=O)N1[C@H]2CCCCCN(C)[C@@]2(C)C[C@H]1c1ccccc1` [CBK286094], the viability at 28.5 h, 10 µM was 85.8%. In the case of `Cc1cccc(NCC(O)Cn2c3ccc(Br)cc3c3cc(Br)ccc32)c1` (stereo not drawn) [CBK261419], the viability at 28.5 h, 10 µM came out at 94.5%. Turning to `CC(NS(=O)(=O)c1ccc(F)cc1)C(=O)Nc1ccc(C(N)=O)cc1` (stereo not drawn) [CBK267658], the viability at 28.5 h, 10 µM is 104%. Regarding `COc1cc(OC)cc(C(=O)N2CCC3(CC2)CC(=O)c2cc(C)ccc2O3)c1` [CBK167804], the viability at 28.5 h, 10 µM amounted to 94.6%. For `COc1cc(/C=N/NC(=O)c2ccccn2)ccc1OC(=O)c1cccc2ccccc12` [CBK262110], the viability at 28.5 h, 10 µM worked out at 94.4%. `CC(C)(C)C(=O)Nc1cccc(OC(F)(F)C(F)Cl)c1` (stereo not drawn) [CBK018091]: the viability at 28.5 h, 10 µM worked out at 95%. As to `CCOC(=O)C1CCN(S(=O)(=O)c2ccc(Cl)s2)CC1` [CBK096109], the viability at 28.5 h, 10 µM worked out at 94.9%. For `COCc1nnc(Sc2cc(N3CCCC3)ncn2)s1` [CBK093746] the value was 88.4%; for `O=C1NC2(CCCC2)C(=O)N1Cc1cnn(-c2ccccc2)n1` [CBK305568], 103%.

For the compound `OC(CN1CCC(O)(c2ccccc2F)CC1)c1ccccc1` (stereo not drawn) [CBK282490], the viability at 28.5 h, 10 µM is 107%. For `Cc1ccnn1CCC(=O)N1CCCC1c1nc2ccccc2[nH]1` (stereo not drawn) [CBK285178] the value was 110%; for `O=C(c1c[nH]nc1-c1cc2ccccc2o1)N1CCC(O)(C(F)(F)F)C1` (stereo not drawn) [CBK305549], 90.7%. Next, `CCC(CN1CCCC1)NC(=O)Cc1cc(C)ccc1OC` (stereo not drawn) [CBK282759]: 83.2%.

`CSc1ccc(-c2cnc3ncccc3c2N)cc1` [CBK083680]: the viability at 28.5 h, 10 µM is 101%.

With `Cc1cc(C)nc(SCC(=O)Nc2cc(C(=O)O)cc([N+](=O)[O-])c2)n1` [CBK268937], the viability at 28.5 h, 10 µM is 86.8%.

Consider `CCc1ccc(C(=O)NCCCN2CCOCC2)cc1` [CBK268144], for which the viability at 28.5 h, 10 µM came to 104%. Next, `Fc1ccc(Oc2nccnc2N2CCN(Cc3ccc(Cl)c(Cl)c3)CC2)cc1` [CBK083007T]: 92.3%; `FC(F)(F)c1cccc(-c2cn3ccnc3c(NCc3ccncc3)n2)c1` [CBK066632]: 97.8%. For `CC(C)N1CCOC[C@H]1c1nc(-c2ccc(S(C)(=O)=O)cc2)c[nH]1` [CBK289301] the value was 91.2%. For `Cc1ccc(CNC(=O)N2CCC3(CC2)OCCc2c3[nH]c3ccccc23)cc1` [CBK047121] the value was 93.3%. For the compound `COCCNC(=O)c1c(NC(=O)c2ccccc2C)sc2c1CCCC2` [CBK091645], the viability at 28.5 h, 10 µM is 83.9%. For `O=C(CCC1CCCCC1)Nc1c[nH]c(=O)[nH]c1=O` [CBK287867] the value was 90.4%; for `COCCNC(=O)c1ccc(-n2ccnc2)c(-n2cccc2)c1` [CBK285369], 85.5%; for `COCCc1noc(CC2CCN(c3cc(C)ncc3C#N)CC2)n1` [CBK304092], 90.4%. For `Cc1ccc(-c2csc3ncnc(Cl)c23)cc1` [CBK287765] the value was 74.7%.

Regarding `CC(O)CN(CC(C)O)CC1CC2C=CC1C2` (stereo not drawn) [CBK261896], the viability at 28.5 h, 10 µM turned out to be 90.4%. Next, `COc1ccc([C@@]23CCC(NC(=S)NCc4ccccc4)C[C@@H]2N(Cc2ccccc2)CC3)cc1` (stereo partly drawn) [CBK028140]: 88%.
